How the values were obtained:
atrogin-1 mRNA = assay: Atrogin-1 mRNA level in myotubes by real-time PCR; type: cell-based, mouse; conditions: for atrogin-1 mRNA expression: 30 μM compound; for atrogin-1 expression in myotube culture: 2.5 μM compound alone, mRNA and protein (FIGS. 7C-7D)
atrogin-1 protein = assay: Atrogin-1 protein in myotubes by Western blotting; type: cell-based, mouse; conditions: for atrogin-1 protein expression: 30 μM compound
Procedure: Western blotting: Cultured cells after treatment were collected at specific times and solubilized in RIPA lysis buffer (50 mM Tris-HCl, pH 7.4, 150 mM NaCl 1% NP-40, 0.5% sodium deoxycholate, 0.1% SDS (Boston Bioproducts)), protease (Roche) and phosphatase (Sigma) inhibitor cocktail). Proteins were separated by SDS-PAGE, transferred to PVDF membranes and visualized by Western blotting using alkaline phosphatase-based CDP-star chemiluminescent detection according to the manufacturer's protocol (Applied Biosystems). Polyclonal anti-atrogin-1 antibody was used as described in Bdolah et al. (Am. J. Physiol. Reg. Integr. Comp. Physiol. 292:R971-R976, 2007). Anti-actin and dynein antibodies were from Santa Cruz Biotechnology.

[1] = system: myotubes derived from atrogin-1 wildtype mice (+/+); assay: Myotube diameter and morphology, myotubes from wildtype mice; type: cell-based, mouse; conditions: for fiber diameter in myotube culture: 2.5 μM compound alone
Procedure: (§1) Myotube fiber size: Size was quantified by measuring a total of 200 tube diameters as described in Sandri et al. (Cell 117:399-412, 2004). Briefly, muscle fiber size from four random fields at 100-fold magnification was measured using IMAGE software (Scion). All data were expressed as the mean +/− S.E.M.

[2] = system: myotubes derived from atrogin-1 knockout mice (−/−); assay: Myotube diameter and morphology, myotubes from atrogin-1 knockout mice; type: cell-based, mouse
Procedure: as §1

zebrafish embryos = assay: Zebrafish embryo myofiber damage, myosin heavy chain staining; conditions: for fiber diameter in zebrafish embryos: 2.5 μM compound alone
Procedure: Zebrafish lines and maintenance: Adult zebrafish (Danio rerio) were maintained as described under standard laboratory conditions at 28.5° C. in a 14 hour light/10 hour dark cycle (Westerfield, in Institute of Neuroscience University of Oregon, Eugene, Oreg.). Developmental stages were determined by embryo morphology and hours post fertilization (hpf) (Kimmel et al., Dev. Dyn. 203:253-310, 1995). To examine the effects of lovastatin, the embryos at 20-24 hpf were immersed in the embryonic water (500 μM NaCl, 170 μM KCl, 330 μM CaCl2, and 330 μM MgSO4) at a concentration of 0.005-10 μM lovastatin (mevinolin) (Sigma) including 0.003% 1-phenyl-2-thiourea (Sigma) to inhibit pigmentation in a 24-well plate. After 32 hpf, the embryos were fixed by 4% paraformaldehyde in PBS.
Whole zebrafish antibody staining: Zebrafish embryos were fixed by 4% paraformaldehyde in PBS overnight. After fixation, the embryos were washed by PBS and stored for at least 1 hour at −20° C. in methanol, and permeabilized for 30 minutes at −20° C. in acetone. Embryos were incubated with blocking buffer (1% BSA, 0.1% Tween-20 in PBS), and incubated with diluted primary antibody, anti-slow twitch myosin F59 (1:100; Developmental Studies Hybridoma Bank (DSHB), Department of Biological Sciences, University of Iowa) (Crow et al., Dev. Biol. 118:333-342, 1986; Devoto et al., Development 122:3371-3380, 1996) in blocking solution for overnight at 4° C. Staining was detected by using Alexa Fluor(R) 594 goat anti-mouse IgG (H+L) (1:200; Invitrogen) in blocking solution for 4 hours at room temperature (Birely et al., Dev. Biol. 280:162-176, 2005).

zebrafish atrogin-1 = assay: Zebrafish atrogin-1 protein by Western blotting; type: in vivo, zebrafish (Danio rerio); conditions: 12 hours; for atrogin-1 expression in zebrafish embryos: 2.5 μM compound alone
Procedure: Western blotting: Zebrafish embryos were homogenized in SDS sample buffer (30 embryos/30 μL of sample buffer) with microfuge pestle until the lysate became uniform in consistency and there was no longer stringy. The lysate was boiled for 5 minutes and centrifuged supernatant was processed for Western blotting (Hanai et al., J. Cell Biol. 158:529-539, 2002). […] (GAPDH) antibody was from Santa Cruz Biotechnology.

[3] = perillyl alcohol 1.0 mM for 24 hours, wildtype myotubes
[4] = 2.5 μM compound with lovastatin, 24 hours, myotube culture
[5] = lovastatin 24 hours, wildtype cultures
[6] = mevalonate 100 μM + lovastatin 1 μM, 24 hours

Question: What does the source list for `CC(=O)N[C@@H](CSC/C=C(\C)CC/C=C(\C)CCC=C(C)C)C(=O)O` [AFC, N-acetyl-S-farnesyl-L-cysteine]?
Answer: atrogin-1 mRNA expression (atrogin-1 mRNA; 24 hours): no effect; atrogin-1 protein expression (atrogin-1 protein; 24 hours): no effect; myotube diameter / myotube integrity ([1]; 30 μM compound, 24 hours, wildtype myotubes): no effect

Question: Which “atrogin-1 mRNA expression” value (atrogin-1 mRNA; 24 hours) does the source give for `CC(=O)N[C@@H](CSC/C=C(\C)CC/C=C(\C)CC/C=C(\C)CCC=C(C)C)C(=O)O` [AGGC, N-acetyl-S-geranylgeranyl-L-cysteine] here?
Answer: Its value is “induction”.

Question: And the atrogin-1 protein expression (atrogin-1 protein; 24 hours)?
Answer: The atrogin-1 protein expression was “induction”.

Question: And the effect on myotubes ([2]; 30 μM AGGC, 24 hours, atrogin-1 knockout myotubes)?
Answer: Its effect on myotubes is “resistant to this reagent”.

Question: What does the source list for `C=C(C)[C@@H]1CC=C(CO)CC1` [Perillyl alcohol, perillyl alcohol]?
Answer: atrogin-1 mRNA levels (atrogin-1 mRNA; [3]): induction; atrogin-1 protein levels (atrogin-1 protein; [3]): induction; damage of myotubes [1, 3]: marked damage; muscle fibers in zebrafish embryos (zebrafish embryos; 0.1 to 1.0 mM perillyl alcohol for 12 hours): dramatic thinning of muscle fibers and morphologic damage

Question: Which “atrogin-1 expression in myotube culture” value (atrogin-1 mRNA; 24 hours) does the source give for `CC(C)=CCCC(C)=CCCC(C)=CCO` [farnesol] here?
Answer: Its value is “neither 2.5 μM farnesol nor 2.5 μM geranylgeranol alone had any effect”.

Question: What about the “atrogin-1 expression in zebrafish embryos” value (zebrafish atrogin-1) of the same molecule?
Answer: Its value is “neither 2.5 μM farnesol nor 2.5 μM geranylgeranol alone had any effect”.

Question: What about the “fiber diameter in myotube culture” value ([1]; 24 hours) of the same molecule?
Answer: Its value is “neither 2.5 μM farnesol nor 2.5 μM geranylgeranol alone had any effect”.

Question: And the “fiber diameter in zebrafish embryos” value (zebrafish embryos; 12 hours)?
Answer: The value was “neither 2.5 μM farnesol nor 2.5 μM geranylgeranol alone had any effect”.

Question: How did the “atrogin-1 expression in myotube culture” value (atrogin-1 mRNA; 24 hours) turn out when `CC(C)=CCC/C(C)=C/CC/C(C)=C/CC/C(C)=C/CO` [geranylgeranol] was run?
Answer: The value was “neither 2.5 μM farnesol nor 2.5 μM geranylgeranol alone had any effect”.

Question: And the “degree of atrogin-1 mRNA induction” value (atrogin-1 mRNA; [4])?
Answer: The value was “reduced the degree”.

Question: What about the “degree of atrogin-1 protein induction” value (atrogin-1 protein; [4]) of the same molecule?
Answer: Its value is “reduced the degree”.

Question: And the “atrogin-1 expression in zebrafish embryos” value (zebrafish atrogin-1)?
Answer: The value was “neither 2.5 μM farnesol nor 2.5 μM geranylgeranol alone had any effect”.

Question: What about the “degree of atrogin-1 induction in zebrafish embryos” value (zebrafish atrogin-1; 2.5 μM compound with lovastatin) of the same molecule?
Answer: The value was “reduced the degree”.

Question: And the “fiber diameter in myotube culture” value ([1]; 24 hours)?
Answer: The value was “neither 2.5 μM farnesol nor 2.5 μM geranylgeranol alone had any effect”.

Question: And the “fiber damage in myotube culture” value ([1]; 2.5 μM compound with lovastatin, 24 hours)?
Answer: Its value is “reduced the degree”.

Question: And the “fiber diameter in zebrafish embryos” value (zebrafish embryos; 12 hours)?
Answer: Its value is “neither 2.5 μM farnesol nor 2.5 μM geranylgeranol alone had any effect”.

Question: What about the “fiber damage in zebrafish embryos” value (zebrafish embryos; 2.5 μM compound with lovastatin, 12 hours) of the same molecule?
Answer: Its value is “reduced the degree”.

Question: `CC[C@H](C)C(=O)O[C@H]1C[C@@H](C)C=C2C=C[C@H](C)[C@H](CC[C@@H]3C[C@@H](O)CC(=O)O3)[C@H]21` [lovastatin] was tested. Which “atrogin-1 mRNA levels” value (atrogin-1 mRNA; [5]) did it give?
Answer: Its value is “dose-dependent increase”.

Question: What about the atrogin-1 protein levels (atrogin-1 protein; [5]) of the same molecule?
Answer: The atrogin-1 protein levels was “dose-dependent increase”.

Question: What about the myotube diameter ([1]; 0.5 to 1.0 μM lovastatin for 24 hours, wildtype myotubes) of the same molecule?
Answer: Its myotube diameter is “dose-dependent reduction in myotube diameter”.

Question: And the “muscle phenotypes (longitudinal muscle fiber staining, myosin heavy chain antibody)” value (zebrafish embryos; lovastatin alone, zebrafish in vivo model)?
Answer: Its value is “clear dose-dependent muscle phenotypes”.

Question: What about the “lovastatin concentration giving class 2 changes (fiber thinning, attenuation of MHC staining)” value (zebrafish embryos; zebrafish embryos, higher concentrations) of the same molecule?
Answer: The value was 0.05 to 0.5 µM.

Question: What about the “lovastatin concentration giving class 1 changes (bowing, gap formation, fiber disruption)” value (zebrafish embryos; zebrafish embryos, low concentration) of the same molecule?
Answer: Its value is 0.025 to 0.05 µM.

Question: What about the “lovastatin concentration giving class 3 changes (irregular somite boundries)” value (zebrafish embryos; zebrafish embryos, maximal concentration) of the same molecule?
Answer: Its value is 1.0 to 5.0 µM.

Question: What about the myotube diameter ([2]; 0.5 to 1.0 μM lovastatin for 24 hours, atrogin-1 knockout cultures) of the same molecule?
Answer: Its myotube diameter is “resistant to lovastatin-induced reduction in myotube diameter”.

Question: What does the source list for `CC(O)(CCO)CC(=O)O` (stereo not shown) [mevalonate]?
Answer: atrogin-1 mRNA induction caused by lovastatin (atrogin-1 mRNA; [6]): completely prevented; atrogin-1 protein induction caused by lovastatin (atrogin-1 protein; [6]): completely prevented; zebrafish atrogin-1 induction (zebrafish atrogin-1; 100 μM mevalonate + 0.05 to 1.0 μM lovastatin): completely prevented; reduction of myotube diameter caused by lovastatin [1, 6]: completely prevented; effect on the muscle cultures when administered alone ([1]; mevalonate 100 μM alone, 24 hours): no effect; development of zebrafish myofiber damage (zebrafish embryos; 100 μM mevalonate + 0.05 to 1.0 μM lovastatin, 12 hours): completely prevented

Source: patent publication US20120171286A1, “METHODS AND COMPOSITIONS FOR THE TREATMENT AND DIAGNOSIS OF STATIN-INDUCED MYOPATHY” (Beth Isreal Deaconess Medical Center, priority 2009, published 2012)
